In BindingDB's records for doi:10.1002/cbic.201402650 (Goethe Universität Frankfurt, 2015) one finds IC50 data, which are given here for twelve compounds.

Usually IC50 stands for the concentration that gives 50% inhibition.

The experiment has as its target T1, Juvenile hormone epoxide hydrolase (Manduca sexta, UniProt Q25489).
T1 sequence (Q25489 whole entry): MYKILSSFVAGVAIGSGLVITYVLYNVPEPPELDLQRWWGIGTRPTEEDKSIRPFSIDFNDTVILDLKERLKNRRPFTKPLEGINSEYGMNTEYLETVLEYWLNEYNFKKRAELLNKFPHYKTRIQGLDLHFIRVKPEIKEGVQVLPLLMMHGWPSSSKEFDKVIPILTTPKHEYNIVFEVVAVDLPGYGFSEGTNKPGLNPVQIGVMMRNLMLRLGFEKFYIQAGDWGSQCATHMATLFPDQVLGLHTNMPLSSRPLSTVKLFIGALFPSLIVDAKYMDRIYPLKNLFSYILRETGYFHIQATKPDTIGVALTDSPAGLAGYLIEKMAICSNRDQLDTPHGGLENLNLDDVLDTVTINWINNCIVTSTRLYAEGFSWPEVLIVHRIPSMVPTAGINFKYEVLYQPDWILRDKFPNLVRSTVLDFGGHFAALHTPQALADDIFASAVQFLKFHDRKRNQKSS
Briefly: Quantitative Reverse Transcriptase Assay. From the text:
We used quantitative reverse-transcriptase PCR to measure the RNA levels of certain AMP genes (lysozyme, gallerimycin, moricin and cecropin) in caterpillars of M. sexta and the greater waxmoth G. mellonella challenged with Serratia entomophila or Salmonella enterica, respectively, following injection of different urea lipid compounds.

Regarding `CC(C)CCCCCCCCNC(N)=O` [N-(9-Methyldecyl) urea (2)], the IC50 was over 100 µM.
Under `CNC(=O)NCCCCCCCCCCC(C)C` [N-Methyl-N -(11-methyldodecyl) urea (3)] stands 30 µM; under `CCCCCCCCCCCCNC(=O)NC` [N-Methyl-N -dodecyl urea (4)], 10.7 µM.
In turn, `CCCCCCCCCCCCCNC(N)=O` [N-Tridecyl urea (10)] gave an IC50 of over 100 µM.
Under `CCCCCCCCCCCCNC(N)=O` [N-Dodecyl urea (6)] stands over 100 µM.
For `CCCCCCCCCCCNC(=O)NC` [N-methyl-N -undecyl urea (7)] the value was 4.3 µM; for `CCCCCCCCCCCCCNC(=O)NC` [N-Methyl-N -tridecyl urea (9)], 10 µM; for `CNC(=O)NCCCCCCCCC(C)C` [N-Methyl-N -(9-methyldecyl) urea (1)], 6.5 µM.
As for `CC(C)CCCCCCCCCCNC(N)=O` [N-(11-Methyldodecyl) urea (5)], the IC50 was over 100 µM.
`CCCCCCCCCNC(N)=O` [N-nonyl urea (12)] returned an IC50 of over 100 µM.
In the case of `CCCCCCCCCNC(=O)NC` [N-Methyl-N -nonyl urea (11)], the IC50 was over 100 µM.
For `CCCCCCCCCCCCNC(=O)NCC(C)C` [US8815951, 478] the value was 2.3 µM.
